# Measurements published in ChEMBL document CHEMBL1201862, “PubChem BioAssay data set” (2004).
# Calls of active or inactive are those of the source.
# Experiments:
# BJ [1] = assay: cells; format: functional, cell-based; details: Homo sapiens
# [2] = general cell-killing toxicity readout – plate reader, dry powder samples, cytotoxicity control for PAX8 inhibitor project, dose response (AID 743021); format: functional, cell-based
# Paired box protein Pax-8 = Paired box protein Pax-8 (Homo sapiens, UniProt Q06710); assay: PAX8 transcriptional activity inhibition in RMG-I – RMG-I cells, luciferase, cherry-pick, dose response (AID 687027); format: functional, cell-based;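 note: luciferase reporter driven by Pax8 target thyroperoxidase promoter measured by SteadyGlo luminescence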
# Paired box protein Pax-8, sequence (Q06710 whole entry): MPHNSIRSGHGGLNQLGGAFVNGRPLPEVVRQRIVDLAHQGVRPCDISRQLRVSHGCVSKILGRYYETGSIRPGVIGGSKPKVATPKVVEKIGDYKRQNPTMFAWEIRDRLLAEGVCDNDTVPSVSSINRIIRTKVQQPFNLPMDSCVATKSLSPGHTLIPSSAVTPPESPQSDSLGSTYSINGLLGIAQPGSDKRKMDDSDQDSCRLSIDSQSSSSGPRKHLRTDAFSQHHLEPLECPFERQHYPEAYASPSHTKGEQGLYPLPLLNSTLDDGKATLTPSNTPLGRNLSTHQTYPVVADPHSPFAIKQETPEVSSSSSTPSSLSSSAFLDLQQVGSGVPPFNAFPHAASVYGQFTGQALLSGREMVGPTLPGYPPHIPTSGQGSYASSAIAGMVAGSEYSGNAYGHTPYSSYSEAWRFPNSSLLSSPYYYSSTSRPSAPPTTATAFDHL
# [3] = HPDE-C7 pancreatic duct cell viability loss – fluorescence, HTS (AID 430); format: functional, cell-based; details: Homo sapiens
# BJ [4] = assay: BJ-TERT-LT-ST fibroblast viability loss – cell-based, RAS-independent, luminescence, dose response (AID 1935); format: functional; details: Homo sapiens;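 note: BJ fibroblasts immortalized with TERT plus LT and ST oncogenes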
# [5] = loss of viability in HepG2 cells – cell-based, CellTiter-Glo, cherry-picked, cytotoxicity control for Shn3 inhibitor project, dose response (AID 624134); format: functional
# [6] = DRD fibroblast viability loss – cell-based, non-viral oncogenic, luminescence, dose response (AID 1934); format: functional; details: Homo sapiens
# [7] = HEK-293T viability loss after treatment – luminescence, T-cell screen hits, cytotoxicity control for TCR NF-kB inhibitor project, dose response (AID 489026); format: functional, cell-based;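 note: cells exposed to compound about 14 hours before the viability readout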
# BJ [8] = assay: BJ-TERT fibroblast viability loss – cell-based, RAS-independent, luminescence, dose response (AID 1933); format: functional; details: Homo sapiens
# [9] = viability loss of HPDE-C7K cells – cell-based, fluorescence, HTS, primary screen (AID 431); format: functional; details: Homo sapiens
# [10] = reduction of Shn3 3'UTR-driven luciferase in osteoblasts – cell-based, Clone20 osteoblasts, firefly luciferase, cherry-picked, dose response (AID 624132); format: functional;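 note: firefly luciferase luminescence from reporter carrying the Shn3 3'UTR in osteoblasts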
# [11] = non-specific 3'UTR reporter inhibition in Clone20-Shn3RL – cell-based, Renilla luciferase, cherry-picked, counter-screen for Shn3 inhibitor project, dose response (AID 624133); format: functional
# [12] = molecular target: T1, Nuclear receptor subfamily 0 group B member 1 (Homo sapiens, UniProt P51843); format: functional, cell-based;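 note: HEK293T cells transfected with SF-1 and DAX-1 plus StAR promoter luciferase reporter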
# T1 sequence (P51843 whole entry): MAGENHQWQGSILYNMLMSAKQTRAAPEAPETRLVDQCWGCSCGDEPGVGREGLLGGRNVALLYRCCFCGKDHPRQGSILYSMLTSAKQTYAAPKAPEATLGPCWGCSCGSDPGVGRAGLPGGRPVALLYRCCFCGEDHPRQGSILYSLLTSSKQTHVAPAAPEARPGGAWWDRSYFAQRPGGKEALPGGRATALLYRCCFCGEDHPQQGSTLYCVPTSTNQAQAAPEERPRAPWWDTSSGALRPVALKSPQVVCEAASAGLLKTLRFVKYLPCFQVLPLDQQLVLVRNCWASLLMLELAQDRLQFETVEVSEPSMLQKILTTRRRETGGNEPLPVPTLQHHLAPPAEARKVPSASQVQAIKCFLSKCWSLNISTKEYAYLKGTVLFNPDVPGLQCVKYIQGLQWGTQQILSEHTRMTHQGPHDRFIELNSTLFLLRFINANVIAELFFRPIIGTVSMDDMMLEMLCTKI
# [13] = molecular target: T2, Oxysterols receptor LXR-beta (Homo sapiens, UniProt P55055); format: functional, cell-based
# T2 sequence (P55055 whole entry): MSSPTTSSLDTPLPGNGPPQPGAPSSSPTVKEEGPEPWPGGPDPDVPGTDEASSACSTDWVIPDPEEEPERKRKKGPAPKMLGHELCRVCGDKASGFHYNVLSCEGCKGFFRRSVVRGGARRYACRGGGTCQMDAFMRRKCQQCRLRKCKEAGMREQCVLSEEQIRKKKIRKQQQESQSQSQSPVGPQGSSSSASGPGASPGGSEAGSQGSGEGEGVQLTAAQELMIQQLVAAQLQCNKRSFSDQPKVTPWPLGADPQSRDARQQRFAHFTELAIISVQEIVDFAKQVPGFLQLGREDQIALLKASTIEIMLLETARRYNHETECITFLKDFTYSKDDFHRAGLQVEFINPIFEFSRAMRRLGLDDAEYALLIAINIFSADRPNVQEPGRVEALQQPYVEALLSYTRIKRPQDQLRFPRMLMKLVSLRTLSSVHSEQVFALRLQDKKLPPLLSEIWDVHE
# [14] = molecular target: T3, Calpain-2 catalytic subunit (Sus scrofa, UniProt P43367); assay: m-calpain protease blockers, concentration series – biochemical, fluorogenic peptide substrate, dose response (AID 1420); format: functional
# T3 sequence (P43367 whole entry): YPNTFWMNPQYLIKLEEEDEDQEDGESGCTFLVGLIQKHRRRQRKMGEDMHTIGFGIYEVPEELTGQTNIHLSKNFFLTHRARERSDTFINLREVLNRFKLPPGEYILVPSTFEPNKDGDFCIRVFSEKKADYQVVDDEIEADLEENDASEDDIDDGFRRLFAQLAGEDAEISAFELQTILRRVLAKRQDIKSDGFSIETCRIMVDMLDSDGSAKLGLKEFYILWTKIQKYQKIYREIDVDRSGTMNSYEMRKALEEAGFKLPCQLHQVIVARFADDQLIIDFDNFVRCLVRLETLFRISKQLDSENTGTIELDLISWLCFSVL
# cells [15] = format: functional, cell-based
# [16] = molecular target: Sphingosine 1-phosphate receptor 2 (Homo sapiens, UniProt O95136); assay: Dose Response Cell Based Assay for Antagonists of the S1P2 Receptor. [Related pubchem assays: 856, 736 ]; format: functional
# Sphingosine 1-phosphate receptor 2, sequence (O95136 whole entry): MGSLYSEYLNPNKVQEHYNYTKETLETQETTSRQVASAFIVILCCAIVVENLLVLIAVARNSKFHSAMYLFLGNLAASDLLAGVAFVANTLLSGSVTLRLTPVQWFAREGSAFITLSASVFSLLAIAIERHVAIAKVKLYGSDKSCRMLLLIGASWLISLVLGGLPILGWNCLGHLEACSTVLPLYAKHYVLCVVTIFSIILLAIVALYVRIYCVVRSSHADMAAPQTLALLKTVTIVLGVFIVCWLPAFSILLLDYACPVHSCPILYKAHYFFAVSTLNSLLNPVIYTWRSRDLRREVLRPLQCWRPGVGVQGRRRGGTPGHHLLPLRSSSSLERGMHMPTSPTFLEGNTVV
# INS1 = assay: INS-1E survival protection against cytokine death – cell-based, luminescence, retest, dose response (AID 449756); format: functional; details: Rattus norvegicus;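 note: cell death triggered by IL-1 beta plus TNF-alpha plus IFN-gamma mixture; protective hits raise ATP signal compared with cytokine alone wells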
# [17] = toxicity to human HepG2 hepatoma cells – cell-based, plate reader, dry powder samples, cytotoxicity control, dose response (AID 1159569); format: functional;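 note: inhibitor potency with signal falling toward the positive control level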
# [18] = toxicity to human hepatoma HepG2 cells – cell-based, cherry-picked samples, cytotoxicity control, dose response (AID 1159577); format: functional
# [19] = Dd2 malaria parasite growth inhibition potency – SYBR Green, dry powder samples, dose response (AID 1159566); format: functional, cell-based;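 note: potency for growth inhibition with lower SYBR green DNA signal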
# [20] = growth inhibition of PfATP4-mutant resistant parasites – NITD609-resistant line, SYBR Green, dry powder, dose response (AID 1159571); format: functional, cell-based;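 note: parasites synchronized at ring stage by sorbitol before testing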
# [21] = growth inhibition of yeast DHODH-expressing 3D7 parasites – SYBR Green, dry powder samples, dose response (AID 1159570); format: functional, cell-based;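 note: parasite growth measured after 72 hours of compound exposure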
# [22] = P. falciparum Dd2 growth inhibitors, dose response, SYBR Green, cherry-picked samples (AID 1159567); format: functional, cell-based
# [23] = NIH3T3 cell viability loss – ATP luminescence, mouse fibroblasts, counter-screen, dose response (AID 2010); format: functional, cell-based;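 note: cells exposed to compound for about 90 hours before reading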
# [24] = Trypanosoma cruzi growth suppression in host cells – NIH3T3 host cells, beta-gal luminescence, confirmation (AID 2044); format: functional, cell-based;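 note: intracellular parasites grown in NIH/3T3 mouse fibroblasts as host cells; luminescent beta-galactosidase reporter signal from transgenic T. cruzi replicating inside host cells; inhibitors lower the luminescence signal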
# cells [25] = assay: cells
# [26] = viability inhibitors of stage V gametocytes – luminescence, dose response (AID 1117278); format: functional, cell-based;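 note: gametocytes exposed to compound for 24 hours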
# [27] = viability loss in human Jurkat cells – cell-based, luminescence, cytotoxicity control for P. falciparum gametocyte viability project, dose response (AID 1117277); format: functional;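 note: potency reflects loss of cellular ATP meaning fewer viable cells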
# cells [28] = assay: cells; remark: listed apart in the source
# [29] = molecular target: T2, Oxysterols receptor LXR-beta; format: functional, cell-based; remark: listed apart in the source
# Beta-galactosidase = Beta-galactosidase (Escherichia coli, UniProt Q8VNN2); assay: detection-enzyme interference by beta-gal modulators – biochemical, E. coli enzyme, set 3, artefact control for CCR6 antagonist project, dose response (AID 504712); format: functional
# Beta-galactosidase, sequence (Q8VNN2 whole entry): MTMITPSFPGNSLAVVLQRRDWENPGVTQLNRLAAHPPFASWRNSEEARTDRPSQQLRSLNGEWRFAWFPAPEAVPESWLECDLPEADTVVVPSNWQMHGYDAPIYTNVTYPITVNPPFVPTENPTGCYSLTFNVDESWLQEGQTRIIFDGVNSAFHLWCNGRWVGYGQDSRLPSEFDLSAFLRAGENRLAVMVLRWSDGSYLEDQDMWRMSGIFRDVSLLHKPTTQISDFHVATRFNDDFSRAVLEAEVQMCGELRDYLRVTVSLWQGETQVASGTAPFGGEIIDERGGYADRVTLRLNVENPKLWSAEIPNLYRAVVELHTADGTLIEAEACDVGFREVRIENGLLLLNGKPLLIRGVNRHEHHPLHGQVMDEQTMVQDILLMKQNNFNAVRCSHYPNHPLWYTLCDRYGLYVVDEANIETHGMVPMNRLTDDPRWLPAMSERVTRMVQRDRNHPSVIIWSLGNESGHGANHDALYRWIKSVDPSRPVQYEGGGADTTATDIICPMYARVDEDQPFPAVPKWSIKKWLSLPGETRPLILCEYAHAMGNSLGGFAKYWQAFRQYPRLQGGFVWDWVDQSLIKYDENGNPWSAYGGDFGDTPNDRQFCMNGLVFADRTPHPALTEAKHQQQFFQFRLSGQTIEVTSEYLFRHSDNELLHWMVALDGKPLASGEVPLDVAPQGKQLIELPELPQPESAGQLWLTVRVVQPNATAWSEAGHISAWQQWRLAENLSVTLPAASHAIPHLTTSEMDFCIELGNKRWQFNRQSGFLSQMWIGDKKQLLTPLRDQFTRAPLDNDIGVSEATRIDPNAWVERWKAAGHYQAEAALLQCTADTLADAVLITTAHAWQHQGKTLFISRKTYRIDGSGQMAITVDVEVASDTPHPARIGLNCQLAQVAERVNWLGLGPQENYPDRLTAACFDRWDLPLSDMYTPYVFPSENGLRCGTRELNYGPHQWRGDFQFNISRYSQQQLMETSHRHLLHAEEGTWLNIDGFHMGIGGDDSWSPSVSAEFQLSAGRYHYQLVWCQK
# HEK293 = assay: EBV LMP1 TES2 canonical NF-kB signalling blockers – cell-based, HEK293, luciferase, cherry-pick, dose response (AID 588343); format: functional; details: Homo sapiens
# [30] = viability loss in HEK293 kidney cells – cell-based, cherry-picks, set 5, cytotoxicity control, dose response (AID 1053117); format: functional
# [31] = viability loss in HepG2 hepatoma cells – cell-based, cherry-picks, set 5, cytotoxicity control, dose response (AID 1053118); format: functional
# [32] = viability loss in A549 lung cancer cells – cell-based, cherry-picks, […], cytotoxicity control, dose response (AID 1053119); format: functional
# [33] = inhibition of ARNT PAS-B/TACC3 complex formation – biochemical, AlphaScreen, cherry-picked samples, confirmation (AID 651703); format: functional, Homo sapiens;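 note: His-tagged ARNT PAS-B domain paired with GST-TACC3 E629A dimer coactivator fragment; potency of inhibitors that break up the complex and lower AlphaScreen signal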
smiles,measurement,setting,value
COc1cccc(N2CCN(c3ncnc4c3cnn4-c3ccc(C)cc3C)CC2)c1,EC50,BJ [1],16.8 µM (active)
same,AC50,[2],17.5 µM (active)
same,AC50,Paired box protein Pax-8,6.38 µM (active)
same,EC50,[3],3.78 µM (active)
same,EC50,BJ [4],> 150 µM (inconclusive)
same,AC50,[5],37.2 µM (active)
same,EC50,[6],11 µM (active)
same,IC50,[7],3.73 µM (active)
same,EC50,BJ [8],14.4 µM (active)
same,EC50,[9],3.17 µM (active)
same,AC50,[10],4.65 µM (active)
same,AC50,[11],4.03 µM (active)
Oc1ccccc1-c1cc(-c2ccc3c(c2)OCCO3)[nH]n1,IC50,[12],17.6 µM (inactive)
same,EC50,[13],> 67.6 µM (inactive)
same,IC50,[14],> 50 µM (not active)
same,IC50,cells [15],> 67.6 µM (inactive)
COc1ccc(OC)c(NC(=O)CSc2ncnc3c2cnn3-c2ccccc2Cl)c1,IC50,[16],3.67 µM (active)
same,AC50,INS1,2.15 µM (active)
N#C[C@H]1[C@H](c2ccc(-c3cccc(F)c3)cc2)[C@H](CO)N1C(=O)c1cccnc1,AC50,[17],76.8 µM (active)
same,AC50,[18],> 39 µM (inactive)
same,AC50,[19],0.641 µM (active)
same,AC50,[20],0.69 µM (active)
same,AC50,[21],1.33 µM (active)
same,AC50,[22],1.16 µM (active)
CCc1ccc(CN2CCCC(CCC(=O)N3CCN(c4ccccn4)CC3)C2)o1 (stereo not drawn),EC50,[23],> 60 µM (not active)
same,EC50,[24],< 0.1 µM (active)
same,EC50,cells [25],0.021 µM (active)
COc1ccc(Cl)cc1C(=O)CSc1nnnn1C1CCCCC1,IC50,[26],> 109 µM (inactive)
same,IC50,[27],10.9 µM (inactive)
Cc1cc(N/C=C/C(=O)c2cccs2)ccc1F,EC50,cells [28],> 67.6 µM (inactive)
same,EC50,[29],> 67.6 µM (inactive)
COc1ccc(N2C(=O)CC(Sc3nnc(-c4ccccc4)o3)C2=O)cc1 (stereo not drawn),AC50,[2],44.9 µM (active)
same,AC50,Paired box protein Pax-8,10.4 µM (active)
same,IC50,Beta-galactosidase,> 66.6 µM (inactive)
same,AC50,HEK293,19.6 µM (active)
CO[C@@H]1CN(C)C(=O)c2ccc(NC(=O)c3ccc(-c4ccccc4)cc3)cc2OC[C@H](C)NC[C@@H]1C,AC50,[18],8.05 µM (active)
same,AC50,[30],18.1 µM (active)
same,AC50,[31],12.2 µM (active)
same,AC50,[32],16.2 µM (active)
same,AC50,[22],4.99 µM (active)
COc1ccc(-c2oc3cc(O)c(OC)c(O)c3c(=O)c2OC)cc1O [CENTAUREIDIN],IC50,[12],35 µM (inactive)
same,IC50,cells [15],> 67.5 µM (inactive)
same,AC50,[33],101 µM (active)
